Reference: patent US20050208549A1, “Testing endosymbiont cellular organelles and compounds identifiable therewith” (priority 2000, published 2005)
One block for each compound: values may come before it.

Experiments:
[1] = tested on: peripheral blood mononuclear cells (PBMCs); experiment: NASBA ratio of mitochondrial RNA to chromosome-encoded RNA in cultured PBMCs; format: cell-based, human (healthy blood donor); settings: culture period of five days, 6 μM and 60 μM
Description: (§1) In Table 1, the primers and probes used in the examples are summarized. Standard NASBA nucleic acid amplification reactions were performed in a 20 μl reaction volume and contained: 40 mM Tris-pH 8.5, 70 mM KCl, 12 mM MgCl2, 5 mM dithiothreitol, 1 mM dNTPs (each), 2 mM rNTPs (each), 0.2 μM primer (each), 0.05 μM molecular beacon, 375 mM sorbitol, 0.105 μg/μl bovine serum albumin, 6.4 units AMV RT, 32 units T7 RNA polymerase, 0.08 units RNAse H and input nucleic acid. The complete mixture, except the enzymes, sorbitol and/or bovine serum albumin was, prior to adding the enzyme mixture, heated to 65° C. for two minutes in order to denature any secondary structure in the RNA and to allow the primers to anneal. After cooling the mixture to 41° C., the enzymes were added. The amplification took place at 41° C. for 90 minutes in a fluorimeter (CytoFluor 2000) and the fluorescent signal was measured every minute (using the filter set 530/25 nm and 485/30 nm). For amplification of DNA target sequences, the 65° C. denaturation step was replaced with a 95° C. denaturation step for two to five minutes.
(§2) To achieve quantification, a dilution series of target sequences for a particular primer set was amplified and the time points at which the reactions became positive (the time to positivity, TTP) were plotted against the input amounts of nucleic acid. This way a calibration curve was created that could be used to read TTP values of reactions with unknown amounts of input and deduce the input amount.
Cells (fibroblasts and PBMCs) were cultured under standard conditions in standard media known to persons skilled in the art with the addition of drugs or putative toxic or stimulating compounds as defined in the examples. […] A small aliquot of the isolated nucleic acid was analyzed on an agarose gel and the remainder stored at −80° C. until further analysis. […]

[2] = Peripheral atrophy, Lipodystrophy; d4T > others; cited from earlier work
[3] = tested on: Fibroblast cells; experiment: NASBA ratio of mitochondrial RNA to chromosome-encoded RNA in cultured fibroblast cells; format: cell-based; settings: culture period of four weeks, antiviral drugs at 3 μM and 30 μM
Description: as §1, with “For amplification of DNA target sequences, the 65° C. denaturation step was replaced with a 95° C. denaturation step for two to five minutes.” left out
as §2, with “amount. […]” for “amount.”

[4] = tested on: Fibroblast cells; experiment: NASBA ratio of mitochondrial RNA to chromosomal DNA in cultured fibroblast cells; format: cell-based; settings: culture period of four weeks, antiviral drugs at 3 μM and 30 μM
Description: as §1, with “For amplification of DNA target sequences, the 65° C. denaturation step was replaced with a 95° C. denaturation step for two to five minutes.” left out
as §2, with “amount. […]” for “amount.”

[5] = tested on: Fibroblast cells; experiment: NASBA ratio of mitochondrial DNA to chromosomal DNA in cultured fibroblast cells; format: cell-based; settings: culture period of four weeks, antiviral drugs at 3 μM and 30 μM
Description: as §1, with “For amplification of DNA target sequences, the 65° C. denaturation step was replaced with a 95° C. denaturation step for two to five minutes.” left out
as §2, with “amount. […]” for “amount.”

[6] = tested on: Fibroblast cells; experiment: NASBA ratio of chromosome-encoded RNA to chromosomal DNA in cultured fibroblast cells; format: cell-based; settings: culture period of four weeks, antiviral drugs at 3 μM and 30 μM
Description: as §1, with “For amplification of DNA target sequences, the 65° C. denaturation step was replaced with a 95° C. denaturation step for two to five minutes.” left out
as §2, with “amount. […]” for “amount.”

[7] = tested on: Fibroblast cells; experiment: NASBA ratio of mitochondrial RNA to mitochondrial DNA in cultured fibroblast cells; format: cell-based; settings: culture period of four weeks, antiviral drugs at 3 μM and 30 μM
Description: as §1, with “For amplification of DNA target sequences, the 65° C. denaturation step was replaced with a 95° C. denaturation step for two to five minutes.” left out
as §2, with “amount. […]” for “amount.”

change in ratio of mitochondrial RNA to chromosome-encoded RNA [1]: no measurable change
Compound: Cc1cn([C@H]2C=C[C@@H](CO)O2)c(=O)[nH]c1=O [D4T]
Rate (%) of mitochondrial toxicity, affected organ Fat [2]: 50%

Compound: CC[n+]1c(-c2ccccc2)c2cc(N)ccc2c2ccc(N)cc21 [ethidium bromide]
change in mitochondrial RNA to chromosome-encoded RNA ratio [3]: decline in mitochondrial RNA content
change in mitochondrial RNA to chromosomal DNA ratio [4]: decline in mitochondrial RNA content
change in mitochondrial DNA to chromosomal DNA ratio [5]: decline in mitochondrial DNA content
change in ratio of chromosome-encoded RNA and chromosomal DNA [6]: no measurable change
change in mitochondrial RNA to mitochondrial DNA ratio [7]: decline in mitochondrial RNA and DNA content
